Holding throughout (format): biochemical
The target of one assay is Cathepsin B (Homo sapiens, UniProt P07858). As to the kind of experiment: Cathepsin B inhibition, fluorogenic peptide substrate kinetic assay. The conditions noted are these: Table III; Cathepsin B inhibition constant, pH5.5; read-out: Ki Cat. B. The protocol: The optimal substrate for cathepsin B, acetyl-histidine-proline-valine-lysine-amino carbamoyl coumarin, was identified from screening a combinatorial library of fluorogenic peptide substrates (Harris, J. L., B. J. Backes, et al., Proc Natl Acad Sci USA 2000, 97(14), 7754-9). Kinetic measurements are performed in a total reaction volume of 30 μl in 384-well microtiter plates. Cathepsin B, at a final concentration of 1.5 nM (active site), is incubated with the compounds at twelve varying concentrations in a buffer containing 100 mM NaAc (pH5.5), 1 mM EDTA, 100 mM NaCl, 0.01% Brij-35 for 20 minutes at room temperature. Control reactions in the absence of inhibitor are performed in replicates of 24. The reactions are initiated by adding the substrate, acetyl-histidine-proline-valine-lysine-amino carbamoyl coumarin, to a final concentration of 10 μM. The rate of substrate hydrolysis is measured by monitoring the increase in fluorescence at an excitation wavelength of 380 nm and an emission wavelength of 450 nm that results from cleavage of the aniline bond in the substrate by the enzyme. The apparent inhibition constants for the compounds are determined from the enzyme progress curves (Kuzmie, P., K. C. Elrod, et al., Anal Biochem 2000, 286(1), 45-50) and are then used to calculate the inhibition constants for competitive inhibitors.

Another assay concerns the target Cathepsin L (Homo sapiens, UniProt P07711). As to the kind of experiment: Cathepsin L inhibition, fluorogenic peptide substrate kinetic assay. The conditions noted are these: Table III; Cathepsin L inhibition constant, pH5.5; read-out: Ki Cat. L. The protocol:
(§1) Kinetic measurements are performed in a total reaction volume of 30 μl in 384-well microtiter plates. […] The reactions are initiated by adding the substrate, acetyl-histidine-lysine-phenylalanine-lysine-amino carbamoyl coumarin, to a final concentration of 20 μM. The rate of substrate hydrolysis is measured by monitoring the increase in fluorescence at an excitation wavelength of 380 nm and an emission wavelength of 450 nm that results from cleavage of the aniline bond in the substrate by the enzyme. The apparent inhibition constants for the compounds are determined from the enzyme progress curves (Kuzmic, P., K. C. Elrod, et al., Anal Biochem 2000, 286(1), 45-50) and are then used to calculate the inhibition constants for competitive inhibitors.

The target of the next assay is Cathepsin S (Homo sapiens, UniProt P25774). The experiment in a line: Cathepsin S inhibition, fluorogenic peptide substrate kinetic assay. As to conditions: Cathepsin S inhibition constant, pH5.5, read-out: Ki Cat. S. In outline: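 Reactions were started with 50 μM (final) acetyl-His-Pro-Val-Lys-aminocarbamoylcoumarin, and hydrolysis was followed by fluorescence (ex 380/em 450 nm). Apparent inhibition constants from enzyme progress curves were converted to Ki for competitive inhibitors using substrate concentration and Km.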
Cathepsin S, sequence (P25774 115-331, species assumed): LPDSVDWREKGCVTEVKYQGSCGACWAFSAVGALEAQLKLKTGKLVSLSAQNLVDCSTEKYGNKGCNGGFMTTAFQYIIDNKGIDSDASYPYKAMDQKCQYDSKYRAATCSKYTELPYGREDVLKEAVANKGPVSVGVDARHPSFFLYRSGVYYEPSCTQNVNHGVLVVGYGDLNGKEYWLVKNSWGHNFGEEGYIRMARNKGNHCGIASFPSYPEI

The target in another assay is T1, Cathepsin K (Homo sapiens, UniProt P43235).
T1 sequence (P43235 115-329): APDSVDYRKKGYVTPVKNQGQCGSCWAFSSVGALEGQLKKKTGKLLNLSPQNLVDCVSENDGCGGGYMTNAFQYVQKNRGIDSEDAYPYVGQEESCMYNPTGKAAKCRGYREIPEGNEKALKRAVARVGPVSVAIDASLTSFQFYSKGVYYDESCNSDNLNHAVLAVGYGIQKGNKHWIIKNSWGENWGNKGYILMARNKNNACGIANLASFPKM
The experiment in a line: Cathepsin K inhibition, fluorogenic peptide substrate kinetic assay. The conditions noted are these: Table III; Cathepsin K inhibition constant, pH5.5; read-out: Ki Cat. K. On the procedure:
as §1, with “The optimal substrate for cathepsin K, acetyl-lysine-histidine-proline-lysine-amino carbamoyl coumarin, was identified from screening a combinatorial library of fluorogenic peptide substrates (Harris, J. L., B. J. Backes, et al., Proc Natl Acad Sci U S A 2000, 97(14), 7754-9). Kinetic” for “Kinetic”, “substrate, acetyl-lysine-histidine-proline-lysine-amino” for “substrate, acetyl-histidine-lysine-phenylalanine-lysine-amino”, “of 40” for “of 20”

Like-named read-outs stand apart in the source and are kept apart here.

Cathepsin L, sequence (P07711 114-333, species assumed): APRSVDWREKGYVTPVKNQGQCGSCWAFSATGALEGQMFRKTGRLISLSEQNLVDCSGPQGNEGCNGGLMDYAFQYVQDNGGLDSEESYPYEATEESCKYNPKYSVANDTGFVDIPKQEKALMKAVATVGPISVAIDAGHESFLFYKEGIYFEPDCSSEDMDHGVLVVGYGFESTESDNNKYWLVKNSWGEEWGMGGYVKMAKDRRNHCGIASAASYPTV

With `COC(=O)c1ccc(COC[C@@H](CN2CCc3cc(F)ccc32)NC(=O)[C@H](CCC2CCCCC2)NC(=O)c2cccc(OC)c2)cc1` [Compound 171, 4-{2-(R)-[4-Cyclohexyl-2-(S)-(3-methoxy-benzoylamino)-butyrylamino]-3-(5-fluoro-2,3-dihydro-indol-1-yl)-propoxymethyl}-benzoic acid methyl ester], the Ki (in general, the equilibrium dissociation constant of an inhibitor or competing ligand from its target) on Cathepsin B was greater than 10 µM; at Cathepsin L, less than 10 µM; at Cathepsin S (Table II) it was less than 100 nM; at Cathepsin S (Table III) it was less than 100 nM; at Cathepsin K it was greater than 10 µM.
On to `O=C(NC(CCC1CCCCC1)C(=O)NC(COCc1ccccc1)CN1CCc2cc(F)ccc21)c1cc2ccccc2[nH]1` (mixture of isomers) [Compound 41, 1H-Indole-2-carboxylic acid {(1S)-[2-benzyloxy-(1R)-(5-fluoro-2,3-dihydro-indol-1-ylmethyl)-ethylcarbamoyl]-3-cyclohexyl-propyl}-amide], for which the Ki is less than 1 µM at Cathepsin B; less than 1 µM at Cathepsin L; less than 100 nM at Cathepsin S (Table II); less than 100 nM at Cathepsin S (Table III); greater than 10 µM on Cathepsin K.
With `C[C@@H](CNc1cc(F)ccc1F)NC(=O)[C@H](CC1CCCCC1)NC(=O)c1ccc(-c2cccc(F)c2)o1` [Compound 91, 5-(3-Fluoro-phenyl)-furan-2-carboxylic acid {2-cyclohexyl-1-(S)-[2-(2,5-difluoro-phenylamino)-1-(S)-methyl-ethylcarbamoyl]-ethyl}-amide], the Ki at Cathepsin B was less than 10 µM; at Cathepsin L it was less than 1 µM; on Cathepsin S (Table II), less than 100 nM; on Cathepsin S (Table III), less than 100 nM; at Cathepsin K, less than 10 µM.
For `CS(=O)(=O)Nc1ccc(C(=O)N[C@@H](CC2CCCCC2)C(=O)NCCN2CCc3cc(F)ccc32)cc1` [Compound 81, N-(S)-{2-cyclohexyl-1-[2-(5-fluoro-2,3-dihydro-indol-1-yl)-ethylcarbamoyl]-ethyl}-4-methanesulfonylamino-benzamide], the Ki at Cathepsin B was greater than 10 µM; on Cathepsin L, less than 10 µM; at Cathepsin S (Table II), less than 100 nM; at Cathepsin S (Table III) it was less than 100 nM; at Cathepsin K, less than 10 µM.
Regarding `Cc1noc(C)c1NC(=O)N[C@@H](CC1CCCCC1)C(=O)NCCN1CCc2cc(F)ccc21` [Compound 221], the Ki at Cathepsin B was greater than 10 µM; on Cathepsin L it was greater than 10 µM; at Cathepsin S (Table II), less than 1000 nM; on Cathepsin S (Table III), less than 1000 nM; at Cathepsin K, greater than 10 µM.
As to `C[C@@H](CNc1ccc(OC(F)(F)F)cc1)NC(=O)[C@H](CC1CCCCC1)NC(=O)c1cnn(-c2cccc(F)c2)c1` [Compound 141, 1-(3-Fluoro-phenyl)-1H-pyrazole-4-carboxylic acid {2-cyclohexyl-1-(S)-[1-(S)-methyl-2-(4-trifluoromethoxy-phenylamino)-ethylcarbamoyl]-ethyl}-amide], the inhibitory constant (Ki) is greater than 10 µM on Cathepsin B; less than 10 µM on Cathepsin L; less than 100 nM at Cathepsin S (Table II); less than 100 nM on Cathepsin S (Table III); greater than 10 µM on Cathepsin K.
For `Cc1nn(C)c(Cl)c1S(=O)(=O)N[C@@H](CC1CCCCC1)C(=O)NCCN1CCc2cc(F)ccc21` [Compound 241, (S)-2-(5-Chloro-1,3-dimethyl-1H-pyrazole-4-sulfonylamino)-3-cyclohexyl-N-[2-(5-fluoro-2,3-dihydro-indol-1-yl)-ethyl]-propionamide], the Ki at Cathepsin B is greater than 10 µM; on Cathepsin L, less than 10 µM; on Cathepsin S (Table II) it was less than 1000 nM; at Cathepsin S (Table III), less than 1000 nM; on Cathepsin K, greater than 10 µM.
For the compound `COc1ccc(N2CCC[C@H](NC(=O)[C@H](CC(C)C)NC(=O)c3cccc(C)c3)C2)cc1` (single isomer, unassigned) [Compound 31], the inhibition constant (Ki) on Cathepsin B is greater than 10 µM; on Cathepsin L, less than 1 µM; at Cathepsin S (Table II), less than 10000 nM; at Cathepsin S (Table III) it was less than 10000 nM; at Cathepsin K, less than 10 µM.

For the origin of these results see patent publication US20040248887A1, “Inhibitors of cathepsin S” (IRM LLC, priority 2003, published 2004).
